In data set [1] the target is T1, N-SH2 domain of SHP2 (Homo sapiens, UniProt Q06124).
T1 construct: constructs of the N-SH2 (residues 2–111), C-SH2 (residues 109–217), and PTP (residues 212–528) domains; made in house; host or cells: Escherichia coli (DE3) Rosetta2
T1 sequence (Q06124 2-111): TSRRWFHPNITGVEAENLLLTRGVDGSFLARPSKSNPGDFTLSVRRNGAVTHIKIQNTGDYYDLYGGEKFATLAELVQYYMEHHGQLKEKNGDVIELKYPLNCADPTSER
Kind of data set: Fluorescence anisotropy direct binding assay. The settings on record: for standard free energy of binding: assuming a 1 M standard state; for Kd: direct titration of labeled peptide. A general note: Polarisation of emitted light reports the rotation of a fluorescent probe.
Method: Anisotropy measurements were carried out using a Horiba Fluoromax 4 spectrofluorimeter. For the binding assays, the requested peptide amount (1 or 0.1 nM) was diluted in a buffer (10 mM HEPES, 150 mM NaCl, 1 mM EDTA, and 1 mM TCEP, fluorescence buffer henceforth) and its anisotropy signal was recorded. The peptide was then titrated with increasing protein amounts, until the anisotropy signal reached a plateau at its maximum value, or up to a protein concentration at which protein aggregation and consequent light scattering affected the anisotropy values (usually >1 μM). The measurements of CF-labeled peptides were carried out using an excitation wavelength of 470 nm and collecting the anisotropy values at an emission wavelength of 520 nm. A 495 nm emission filter was used. […] Between two and six replicates were performed (the specific numbers are indicated in the figures and in the table reporting the binding experiments).
Analysis of binding curves
fractions correspond to the population of the two states.
𝑟 = 𝑥𝐵𝑟𝑚𝑎𝑥 + (1 − 𝑥𝐵)𝑟0 (1)
Here, r, r0 and rmax are the anisotropy values at a given protein concentration, in the absence of protein and when the peptide is completely bound, respectively, and 𝑥𝐵 is the molar fraction of bound peptide. This last quantity, therefore, can be derived from the anisotropy values as follows:
Kd values were obtained fitting the data with the following equation, 2 which avoids the need for the commonly used (but often unjustified) approximation of the concentration of unbound protein with
Here, [P]T and [L]T are the total protein and ligand concentrations. When allowed by the experimental conditions (i.e. when [𝐿]𝑇 ≪ 𝐾𝑑), this equation was simplified by assuming [𝑃]𝑇 ≅
(§2) The affinity of unlabeled peptides was determined by competition experiments, in which a sample with fixed total protein and fluorescently labeled peptide concentrations ([ 𝑃]T and [𝐿]T) was titrated with the unlabeled peptide, causing displacement of the flu orescent peptide and a decrease in
half of the bound fluorescent analog) was determined, interpolating the displacement curve using a phenomenological Hill equation:3
where [I]T is the total concentration of the peptide causing the displacement, and rfin is the anisotropy corresponding to total displacement, while in this case r0 is the starting anisotropy, in the absence of displacing peptide.
Successively, the dissociation constant of the unlabeled peptide (𝐾𝑑𝑢) was calculated from the know values of EC50, Kd, [𝑃]𝑇 and [𝐿]𝑇, as described here below.
In the system where protein (P), ligand (L ) and a competitive inhibitor (I) are present, both L and I can form complexes with P (PL and PI, respectively). The following dissociation constants can be defined for the two binding equilibria:

A short description of data set [2]: Peptide stability in DMEM. It is filed as in vitro ADME. The settings on record: 3 days; data not shown. On the procedure:
(§1) The peptides were dissolved in DMSO (5 mg/mL). In Eppendorf tubes, 1 mL of HEPES buffer (25 mM, pH 7.6) was temperature equilibrated at 37 °C before the addition of 250 μL of human serum and 20 μL of a peptide solution; the reaction was followed for 24 h. At fixed intervals, 100 μL of the solution was withdrawn and added to 200 μL of absolute ethanol. These samples were kept on ice for 15 min and then centrifuged at 13000 rpm for 5 min; the supernatant solutions were analyzed by HPLC and HPLC-MS with a 20% to 60% B gradient in 20 min to follow the reaction. In parallel, samples containing peptide, buffer, and ethanol only were analyzed. A degradation resistance test was also conducted in DMEM (Dulbecco’s modified Eagle’s medium). The experimental conditions are similar to those described above; the reaction was followed for 72 h. The enzymatic degradation resistance tests were followed by HPLC using a 5% to 50% B gradient over 20 min.

The next data set concerns the target T2, SHP2Δ104 (Homo sapiens, UniProt Q06124).
T2 construct: the isolated PTP domain preceded by the C-SH2 domain (residues 105–528); made in house; host or cells: Escherichia coli (DE3) Rosetta2
T2 sequence (Q06124 105-528): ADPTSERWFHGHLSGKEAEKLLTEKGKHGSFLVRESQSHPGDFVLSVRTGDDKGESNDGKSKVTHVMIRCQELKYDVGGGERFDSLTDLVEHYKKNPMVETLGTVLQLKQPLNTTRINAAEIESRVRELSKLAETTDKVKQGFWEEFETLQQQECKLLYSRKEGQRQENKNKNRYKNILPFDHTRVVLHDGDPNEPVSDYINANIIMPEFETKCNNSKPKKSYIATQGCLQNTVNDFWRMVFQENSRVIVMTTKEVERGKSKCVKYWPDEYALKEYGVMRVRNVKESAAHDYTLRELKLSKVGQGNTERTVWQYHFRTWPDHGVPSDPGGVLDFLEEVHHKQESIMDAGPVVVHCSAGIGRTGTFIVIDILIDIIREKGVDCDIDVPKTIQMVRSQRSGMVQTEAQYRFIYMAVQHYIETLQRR
As to the kind of experiment: Dephosphorylation of phosphopeptides, malachite green phosphatase assay. The class given is biochemical. The following applies: 100 μM phosphopeptide. On the procedure:
The ability of SHP2 to dephosphorylate the phosphopeptides was evaluated through a malachite green phosphatase assay (PTP assay kit 1, Millipore). The BTAM peptide and the following monophosphorylated peptides derived from known SHP2 substrates were used for comparison: DKQVE-pY-LDLDL (GAB1Y657), EEENI-pY-SVPHD (p190A/RhoGAPY1105), and VDADE-pY-LIPQQ (EGFRY1016) (Primm). SHP2Δ104 (2.4 pmol) was incubated with each phosphopeptide at 100 μM (total volume of 25 μL) for different times. The reaction was stopped by adding 100 μL of a malachite green solution. After 15 min, the absorbance was read at 655 nm, using a microplate reader, and compared with a phosphate standard curve to determine the release of phosphate. Data obtained in the linear region of the curve were normalized to the reaction time (1 min). Each experiment was performed in duplicate.

The target in data set [3] is T1, N-SH2 domain of SHP2. Kind of data set: Fluorescence anisotropy displacement assay. The settings on record: 1.0 nM CF-P9, 40 nM N-SH2; compared with P9. It is filed as binding.
Method: The displacement assays were carried out with the same experimental settings. In this case, the labeled peptide–protein complex was titrated with increasing amounts of the unlabeled peptide, following the decrease in anisotropy. Measurements were carried out at the same CF-peptide concentration used for the corresponding binding experiments. With regard to the protein concentration, a compromise between two requirements is needed.[90] […] Between three and five replicates were performed (the specific numbers are indicated in the figures reporting the binding experiments).
Here, [P]T and [L]T are the total protein and ligand concentrations. […]
as §2
half of the bound fluorescent analog) was determined, interpolating the displacement curve using a phenomenological Hill equation:3 […]
Successively, the dissociation constant of the unlabeled peptide (𝐾𝑑𝑢) was calculated from the know values of EC50, Kd, [𝑃]𝑇 and [𝐿]𝑇, as described here below. […]
In this way, 𝐾𝑑𝑢 is expressed as a function of the known quantities EC50, Kd, [𝑃]T and [𝐿]T, without
Data set [4] can be described thus: Peptide stability in human serum (HPLC). The class given is in vitro ADME. The following applies: in 3 h, positive control. The procedure: as §1
Data set [5] deals with N-SH2 domain. Further details: method as in ref 19 (a number printed in a supplementary file, which may have a reference list of its own: not looked up in the article's list). The following applies: Isothermal titration calorimetry; cited from earlier work.
For data set [6], the target named is N-SH2 domain. Also noted: method as in ref 48 (a number printed in a supplementary file, which may have a reference list of its own: not looked up in the article's list). The settings on record: Radioactively labeled peptide; cited from earlier work.

Read-outs that look alike come from different tables or passages of the source. Where a SMILES comes first, the peptide text is derived from it. [ ]: non-standard residue; d: D form. The star is where a group is joined. 5FAM = O=C1OC2(c3ccc(O)cc3Oc3cc(O)ccc32)c2ccc(C(=O)*)cc21; pY = N[C@@H](Cc1ccc(OP(=O)(O)O)cc1)C(=O)O

These results are taken from paper PMC8591604, “Targeting Oncogenic Src Homology 2 Domain-Containing Phosphatase 2 (SHP2) by Inhibiting Its Protein–Protein Interactions” (Journal of Medicinal Chemistry, 2021).

Regarding `CC[C@H](C)[C@H](NC(=O)[C@H](Cc1ccc(OP(=O)(O)O)cc1)NC(=O)[C@H](CC(N)=O)NC(=O)[C@H](CC(C)C)NC(=O)CNC(=O)c1ccc2c(c1)C(=O)OC21c2ccc(O)cc2Oc2cc(O)ccc21)C(=O)N[C@@H](CC(=O)O)C(=O)N[C@@H](CC(C)C)C(=O)N[C@@H](CC(=O)O)C(=O)N[C@@H](CC(C)C)C(N)=O` [CF-P9, CF-GLN-pY -IDLDL] (5FAM-GLN[pY]IDLDL-NH2), at N-SH2 domain of SHP2 [1], the “standard free energy of binding” value was -9.94 ± 0.024 kcal/mol and binding was put at a Kd of 0.053 ± 0.002 µM.
As for `CC[C@H](C)[C@H](NC(=O)[C@H](Cc1ccc(O)cc1)NC(=O)[C@H](CC(N)=O)NC(=O)[C@H](CC(C)C)NC(=O)CNC(=O)c1ccc2c(c1)C(=O)OC21c2ccc(O)cc2Oc2cc(O)ccc21)C(=O)N[C@@H](CC(=O)O)C(=O)N[C@@H](CC(C)C)C(=O)N[C@@H](CC(=O)O)C(=O)N[C@@H](CC(C)C)C(N)=O` [CF-P9Y0, CF-GLN- Y -IDLDL] (5FAM-GLNYIDLDL-NH2), the “affinity, times lower than the phosphorylated peptide” value on N-SH2 domain of SHP2 [1] (CF-P9Y0 vs CF-P9) is reported as “approximately 100 times”. Besides, at N-SH2 domain of SHP2 [1], the “standard free energy of binding” value is -7.07 ± 0.048 kcal/mol and the affinity, expressed as Kd, was 6.6 ± 0.6 µM.
In the case of `CC[C@H](C)[C@H](NC(=O)[C@H](Cc1ccc(C(F)(F)P(=O)(O)O)cc1)NC(=O)[C@H](CC(N)=O)NC(=O)[C@H](CC(C)C)NC(=O)CNC(C)=O)C(=O)N[C@@H](CC(=O)O)C(=O)N[C@@H](CC(C)C)C(=O)N[C@@H](CC(=O)O)C(=O)N[C@@H](Cc1c[nH]c2ccccc12)C(N)=O` [OP, GLN- F2Pmp-IDLDW], the “stability in DMEM” value in data set [2] is given as “stable”.
For the compound `CC[C@H](C)[C@H](NC(=O)[C@H](Cc1ccc(OP(=O)(O)O)cc1)NC(=O)[C@H](CC(N)=O)NC(=O)[C@H](CC(C)C)NC(C)=O)C(=O)N[C@@H](CC(=O)O)C(=O)N[C@@H](CC(C)C)C(=O)N[C@@H](CC(=O)O)C(=O)N[C@@H](CC(C)C)C(N)=O` [P8, LN-pY -IDLDL] (Ac-LN[pY]IDLDL-NH2), the “dephosphorylation by SHP2Δ104” value on SHP2Δ104 is recorded as “dephosphorylation was indeed observed”. On N-SH2 domain of SHP2 [3], the “effect of shortening the sequence on affinity (displacement curves)” value is “No significant loss of affinity”.
Regarding `CC[C@H](C)[C@H](NC(=O)[C@H](Cc1ccc(OP(=O)(O)O)cc1)NC(=O)[C@H](CC(N)=O)NC(=O)[C@H](CC(C)C)NC(C)=O)C(=O)N[C@@H](CC(=O)O)C(=O)N[C@@H](CC(C)C)C(=O)N[C@@H](CC(=O)O)C(=O)N[C@@H](Cc1c[nH]c2ccccc12)C(N)=O` [P8W5, LN-pY -IDLDW], the “dephosphorylation by SHP2Δ104” value on SHP2Δ104 is on record as “dephosphorylation was indeed observed”.
`CC[C@H](C)[C@H](NC(=O)[C@H](C)NC(=O)[C@H](CCCCN)NC(=O)CNC(=O)[C@H](Cc1ccc(O)cc1)NC(=O)[C@H](Cc1ccc(O)cc1)NC(=O)[C@H](CCCCN)NC(=O)[C@H](Cc1ccccc1)NC(=O)[C@@H](N)Cc1c[nH]c2ccccc12)C(=O)N[C@@H](Cc1ccc(O)cc1)C(=O)O` [XP] (H-WFKYYGKAIY-OH): the “degradation in human serum” value in data set [4] was “totally degraded”.
Consider N-pY -IDLDL [P7], for which the “effect of shortening the sequence on affinity (displacement curves)” value at N-SH2 domain of SHP2 [3] is recorded as “drastic perturbation of the complex stability”.
Consider SLN-pY-IDLDLVKD [IRS-1 pY1172], for which the Kd at N-SH2 domain [5] was 0.051 µM; at N-SH2 domain [6] it was 1 to 10 µM.

A word on the Kd: it is the concentration at which binding is half-saturated.
